Data on 24 molecules can be found in patent publication US20180093951A1, “PESTICIDALLY ACTIVE CAR[…] THIOCAR[…] DERIVATIVES” (Syngenta Participations AG, priority 2015, published 2018).

The subject of series [1] is Spodoptera littoralis. The series can be described thus: Spodoptera littoralis (Egyptian cotton leaf worm) cotton leaf disc spray test. It counts as in vivo. As to conditions: foliar, 72 h, application rate of 200 ppm, L1 larvae, 3 days after infestation, read-out: control (at least one of mortality, anti-feedant effect, growth inhibition). As for the experimental part:
Example B1: Spodoptera littoralis (Egyptian Cotton Leaf Worm)
Cotton leaf discs were placed on agar in 24-well microtiter plates and sprayed with aqueous test solutions prepared from 10,000 ppm DMSO stock solutions. After drying, the leaf discs were infested with five L1 larvae. The samples were assessed for mortality, anti-feedant effect, and growth inhibition in comparison to untreated samples 3 days after infestation. Control of Spodoptera littoralis by a test sample is when at least one of mortality, anti-feedant effect, and growth inhibition is higher than the untreated sample.

Series [2] concerns Plutella Xylostella. Description: Plutella xylostella (diamond back moth) artificial diet test. It is filed as in vivo. Particulars: 120 h, application rate of 200 ppm, L2 larvae, 5 days after infestation, read-out: effect in at least one of the two categories (mortality or growth inhibition). On the procedure: Example B2: Plutella Xylostella (Diamond Back Moth)
24-well microtiter plates with artificial diet were treated with aqueous test solutions prepared from 10,000 ppm DMSO stock solutions by pipetting. After drying, the plates were infested with L2 larvae (10 to 15 per well). The samples were assessed for mortality and growth inhibition in comparison to untreated samples 5 days after infestation.
The following compounds gave an effect of at least 80% in at least one of the two categories (mortality or growth inhibition) at an application rate of 200 ppm: P1, P2, P3, P5, P10, P11, P14 and P20.

In series [3] the test system is Diabrotica Balteata. Description: Diabrotica balteata (corn root worm) maize sprout test. It counts as in vivo. As to conditions: 96 h, application rate of 200 ppm, L2 larvae, 4 days after infestation, read-out: effect in at least one of the two categories (mortality or growth inhibition). On the procedure: Example B3: Diabrotica Balteata (Corn Root Worm)
Maize sprouts, placed on an agar layer in 24-well microtiter plates were treated with aqueous test solutions prepared from 10,000 ppm DMSO stock solutions by spraying. After drying, the plates were infested with L2 larvae (6 to 10 per well). The samples were assessed for mortality and growth inhibition in comparison to untreated samples 4 days after infestation.
The following compounds gave an effect of at least 80% in at least one of the two categories (mortality or growth inhibition) at an application rate of 200 ppm: P1, P2, P3, P4, P5, P10 and P14.

The subject of series [4] is Tetranychus Urticae. Description: Tetranychus urticae (two-spotted spider mite) feeding/contact activity on bean leaf discs. It counts as in vivo. As to conditions: foliar, 192 h, application rate of 200 ppm, mixed population (mobile stages), 8 days after infestation. As for the experimental part:
Example B4: Tetranychus Urticae (Two-Spotted Spider Mite) (Feeding/Contact Activity)
Bean leaf discs on agar in 24-well microtiter plates were sprayed with aqueous test solutions prepared from 10′000 ppm DMSO stock solutions. After drying the leaf discs were infested with a mite population of mixed ages. The samples were assessed for mortality on mixed population (mobile stages) 8 days after infestation.

For `O=C(Nc1ccccc1C(F)(F)F)O/N=C/c1ccc(-c2ncn(-c3ccc(OC(F)(F)F)cc3)n2)cc1`, the melting point (as a rule, the temperature, or range, at which the solid turns liquid) fell in the range of 179 to 180 °C.

The molecule `O=C(Nc1ccccc1)O/N=C/c1ccc(-c2ncn(-c3ccc(OC(F)(F)F)cc3)n2)cc1` yielded a melting point of 174 to 180 °C. On the same count and under the same terms, then `O=C(Nc1ccc(Cl)cc1Cl)O/N=C/c1ccc(-c2ncn(-c3ccc(OC(F)(F)F)cc3)n2)cc1`, with 179 to 182 °C; and `O=C(Nc1ccccc1Cl)O/N=C/c1ccc(-c2ncn(-c3ccc(OC(F)(F)F)cc3)n2)cc1`, with 183 to 184 °C.

Molecule `COc1ccccc1NC(=O)O/N=C/c1ccc(-c2ncn(-c3ccc(OC(F)(F)F)cc3)n2)cc1` yielded a melting point of 182 to 183 °C. On to `O=C(Nc1cscc1Br)O/N=C/c1ccc(-c2ncn(-c3ccc(OC(F)(F)F)cc3)n2)cc1`, for which the melting point lay in the range of 197 to 198 °C. For `CC(C)c1ccccc1NC(=O)O/N=C/c1ccc2c(c1)nc(-c1ccc(OC(F)(F)F)cc1)n2C`, the melting point is 93 to 130 °C. Turning to `CC(C)c1ccccc1NC(=O)O/N=C/c1ccc2nc(-c3ccc(OC(F)(F)F)cc3)n(C)c2c1`, the melting point fell in the range of 98 to 130 °C. Take `Cc1cccc(C)c1NC(=O)O/N=C/c1ccc2nc(-c3ccc(OC(F)(F)F)cc3)n(C)c2c1`: the melting point was 68 to 124 °C. Regarding `Cc1cccc(C)c1NC(=O)O/N=C/c1ccc2c(c1)nc(-c1ccc(OC(F)(F)F)cc1)n2C`, the melting point fell in the range of 68 to 124 °C. Still for that read-out and setting: under `Cc1cccc(C)c1NC(=O)O/N=C/c1ccc2c(c1)C(=O)N(c1ccc(OC(F)(F)F)cc1)C2=O` stands 247 to 248 °C; under `CC/C(=N\OC(=O)Nc1ccccc1C(C)C)c1ccc(-c2ncn(-c3ccc(OC(F)(F)F)cc3)n2)cc1`, 170 to 171 °C. With `CC/C(=N\OC(=O)Nc1ccccc1C(F)(F)F)c1ccc(-c2ncn(-c3ccc(OC(F)(F)F)cc3)n2)cc1`, the melting point was 151 to 154 °C. On to `CC(C)c1ccccc1NC(=O)O/N=C\c1ccc(-c2ncn(-c3ccc(OC(F)(F)F)cc3)n2)cc1` (single isomer, unassigned) [Compound P1, [(Z)-[4-[1-[4-(trifluoromethoxy)phenyl]-1,2,4-triazol-3-yl]phenyl]methyleneamino] N-(2-isopropylphenyl) carbamate], for which the percent control (mortality, anti-feedant effect or growth inhibition) at 200 ppm in series [1] was not below 80%. Further, the percent effect (mortality or growth inhibition) at 200 ppm in series [2] and in series [3] was not below 80% in each case.

As for `CC(C)c1ccccc1NC(=O)O/N=C/c1ccc(-c2ncn(-c3ccc(OC(F)(F)F)cc3)n2)cc1` (single isomer, unassigned) [Compound P2, [(E)-[4-[1-[4-(trifluoromethoxy)phenyl]-1,2,4-triazol-3-yl]phenyl]methyleneamino] N-(2-isopropylphenyl) carbamate], the percent control (mortality, anti-feedant effect or growth inhibition) at 200 ppm in series [1] is not below 80%. Also, the percent effect (mortality or growth inhibition) at 200 ppm in series [2] and in series [3] was not below 80% in each case. For `C/C(=N\OC(=O)Nc1ccccc1C(C)C)c1ccc(-c2ncn(-c3ccc(OC(F)(F)F)cc3)n2)cc1` [Compound P3], the percent effect (mortality or growth inhibition) at 200 ppm in series [2] and in series [3] was not below 80% in each case. In the case of `C/C(=N\OC(=O)Nc1ccccc1C(F)(F)F)c1ccc(-c2ncn(-c3ccc(OC(F)(F)F)cc3)n2)cc1` [Compound P4, [1-[4-[1-[4-(trifluoromethoxy)phenyl]-1,2,4-triazol-3-yl]phenyl]ethylideneamino]N-[2-(trifluoromethyl)phenyl]carbamate], in series [3], the percent effect (mortality or growth inhibition) at 200 ppm was not below 80%. Regarding `C/C(=N\OC(=O)Nc1c(C)cccc1C)c1ccc(-c2ncn(-c3ccc(OC(F)(F)F)cc3)n2)cc1` [Compound P5], the percent control (mortality, anti-feedant effect or growth inhibition) at 200 ppm in series [1] is not below 80%. The percent effect (mortality or growth inhibition) at 200 ppm in series [2] and in series [3] was not below 80% throughout. For `CC/C(=N\OC(=O)Nc1c(C)cccc1C)c1ccc(-c2ncn(-c3ccc(OC(F)(F)F)cc3)n2)cc1` [Compound P10], in series [1], the percent control (mortality, anti-feedant effect or growth inhibition) at 200 ppm was not below 80%. The percent effect (mortality or growth inhibition) at 200 ppm in series [2] and in series [3] was not below 80% in each case.

On to `Cc1cccc(C)c1NC(=O)O/N=C/CCc1ccc(-c2ncn(-c3ccc(OC(F)(F)F)cc3)n2)cc1` [Compound P11], for which the percent effect (mortality or growth inhibition) at 200 ppm in series [2] was not below 80%. On to `Cc1cccc(C)c1NC(=O)O/N=C/c1ccc(-c2ncn(-c3ccc(OC(F)(F)F)cc3)n2)cc1` [Compound P14], for which the percent effect (mortality or growth inhibition) at 200 ppm in series [2] and in series [3] was not below 80% in each case. For `Cc1cccc(C)c1NC(=O)O/N=C/c1ccc2sc(-c3ccc(OC(F)(F)F)cc3)nc2c1` [Compound P17], the percent control (mortality, anti-feedant effect or growth inhibition) at 200 ppm in series [1] was not below 80%. For `Cc1cc(NC(=O)O/N=C/c2ccc(-c3ncn(-c4ccc(OC(F)(F)F)cc4)n3)cc2)c(C(F)(F)F)o1` [Compound P19], the mortality (in general, the share of the test organisms that died) at 200 ppm in series [4] was not below 80%.

Turning to `O=C(Nc1ccc(Cl)nc1)O/N=C/c1ccc(-c2ncn(-c3ccc(OC(F)(F)F)cc3)n2)cc1` [Compound P20], the percent control (mortality, anti-feedant effect or growth inhibition) at 200 ppm in series [1] is not below 80%. Moreover, the percent effect (mortality or growth inhibition) at 200 ppm in series [2] was not below 80%. For the same molecule, in series [4], the mortality at 200 ppm is not below 80%.
